In US8134015B2, “Compound inhibiting in vivo phosphorous transport and medicine containing the same” (Kyowa Hakko Kirin Co., Ltd., priority 2003, dated 2012):

These compounds were tested against T1, rat NaPi-2b (Rattus norvegicus, UniProt Q9JJ09) (assay: Sodium-dependent phosphate uptake of Xenopus oocytes which expressed NaPi-2b (32P)). Settings: Xenopus oocytes expressing rat NaPi-2b, 32P radioactive phosphorus; read-out: IC50 (phosphate uptake inhibitory activity).
T1 construct: expressed in transfected cells; host or cells: Xenopus oocytes injected with cRNA
T1 sequence (Q9JJ09 1-695): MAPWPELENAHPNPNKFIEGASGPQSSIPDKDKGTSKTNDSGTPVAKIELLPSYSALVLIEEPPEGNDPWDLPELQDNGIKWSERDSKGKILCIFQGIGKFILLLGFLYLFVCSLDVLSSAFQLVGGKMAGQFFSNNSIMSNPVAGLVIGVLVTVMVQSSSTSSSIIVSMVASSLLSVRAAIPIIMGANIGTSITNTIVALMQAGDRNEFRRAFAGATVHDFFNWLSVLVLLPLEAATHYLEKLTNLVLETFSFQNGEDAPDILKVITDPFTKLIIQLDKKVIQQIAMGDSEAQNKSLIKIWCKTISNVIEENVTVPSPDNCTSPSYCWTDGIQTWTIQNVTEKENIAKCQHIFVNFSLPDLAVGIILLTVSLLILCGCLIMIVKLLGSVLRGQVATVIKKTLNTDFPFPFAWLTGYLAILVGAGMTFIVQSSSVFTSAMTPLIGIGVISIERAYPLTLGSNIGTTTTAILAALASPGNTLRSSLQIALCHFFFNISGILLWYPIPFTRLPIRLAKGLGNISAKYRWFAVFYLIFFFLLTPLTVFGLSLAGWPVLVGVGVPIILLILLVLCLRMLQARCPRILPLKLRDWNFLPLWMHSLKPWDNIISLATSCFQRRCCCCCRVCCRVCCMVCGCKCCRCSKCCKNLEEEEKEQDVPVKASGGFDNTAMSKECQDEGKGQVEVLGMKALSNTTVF
Assay type: cell-based
Procedure, shortened: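 Rat small-intestine NaPi-2b cRNA injected into Xenopus oocytes, expressed for 2 days. Sodium-dependent phosphate uptake measured with 32P; % inhibition at 300 and 100 μM taken from the same inhibition curve.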

**Q.** How did the IC50 turn out when `CCSCCNCc1ccc(C(=O)Nc2ccc(Br)cc2C(=O)N/N=C/c2cccc(F)c2)cc1` [Compound 768, N-[4-Bromo-2-(3-fluoro-benzylidene-hydrazinocarbonyl)-phenyl]-4-[(2-ethylsulfanyl-ethylamino)-methyl]-benzamide] was run?
**A.** The IC50 was 10.6 µM.

**Q.** Which IC50 does the source give for `CCSCCNCc1ccc(C(=O)Nc2ccc(Br)cc2C(=O)N/N=C/c2ccc(Cl)c(C(F)(F)F)c2)cc1` [Compound 769, N-[4-Bromo-2-(4-chloro-3-trifluoromethyl-benzylidene-hydrazinocarbonyl)-phenyl]-4-[(2-ethylsulfanyl-ethylamino)-methyl]-benzamide] here?
**A.** The IC50 was 4.44 µM.

**Q.** With `CCSCCNCc1ccc(C(=O)Nc2ccc(Br)cc2C(=O)N/N=C/c2ccc(OC)cc2)cc1` [Compound 770, N-[4-Bromo-2-(4-methoxy-benzylidene-hydrazinocarbonyl)-phenyl]-4-[(2-ethylsulfanyl-ethylamino)-methyl]-benzamide] as the compound, how does the IC50 read?
**A.** Its IC50 is 16.5 µM.

**Q.** How did the IC50 turn out when `Cc1csc(NC(=O)c2cccc(CN(CCO)CCO)c2)c1C(=O)N/N=C/c1ccc(Cl)c(C(F)(F)F)c1` [Compound 790, 3-{[Bis-(2-hydroxy-ethyl)-amino]-methyl}-N-[3-(4-chloro-3-trifluoromethyl-benzylidene-hydrazinocarbonyl)-4-methyl-thiophen-2-yl]-benzamide] was run?
**A.** The IC50 was 4.32 µM.

**Q.** With `Cc1ccc(/C=N/NC(=O)c2c(NC(=O)c3cccc(CN(CC(C)O)CC(C)O)c3)sc3ccccc23)cc1C` (centres unmarked) [Compound 792, 3-{[Bis-(2-hydroxy-propyl)-amino]-methyl}-N-[3-(3,4-dimethyl-benzylidene-hydrazinocarbonyl)-benzo[b]thiophen-2-yl]-benzamide] as the compound, how does the IC50 read?
**A.** Its IC50 is 1.26 µM.

**Q.** `CC(O)CN(Cc1cccc(C(=O)Nc2sc3ccccc3c2C(=O)N/N=C/c2ccc(Cl)c(C(F)(F)F)c2)c1)CC(C)O` (centres unmarked) [Compound 796, 3-{[Bis-(2-hydroxy-propyl)-amino]-methyl}-N-[3-(4-chloro-3-trifluoromethyl-benzylidene-hydrazinocarbonyl)-benzo[b]thiophen-2-yl]-benzamide] was tested. Which IC50 did it give?
**A.** Its IC50 is 0.35 µM.

**Q.** Which IC50 does the source give for `COc1ccc(/C=N/NC(=O)c2c(NC(=O)c3cccc(CN(CC(C)O)CC(C)O)c3)sc3ccccc23)cc1` (centres unmarked) [Compound 797, 3-{[Bis-(2-hydroxy-propyl)-amino]-methyl}-N-[3-(4-methoxy-benzylidene-hydrazinocarbonyl)-benzo[b]thiophen-2-yl]-benzamide] here?
**A.** The IC50 was 3.39 µM.

**Q.** Which IC50 does the source give for `Cc1ccc(/C=N/NC(=O)c2c(NC(=O)c3cccc(CN4CCC(CO)CC4)c3)sc3ccccc23)cc1C` [Compound 798, N-[3-(3,4-Dimethyl-benzylidene-hydrazinocarbonyl)-benzo[b]thiophen-2-yl]-3-(4-hydroxymethyl-piperidin-1-ylmethyl)-benzamide] here?
**A.** The IC50 was 3.62 µM.

**Q.** Which IC50 does the source give for `Cc1ccc(/C=N/NC(=O)c2c(NC(=O)c3cccc(CN4CCC(CO)CC4)c3)sc3ccccc23)cc1` [Compound 799, 3-(4-Hydroxymethyl-piperidin-1-ylmethyl)-N-[3-(4-methyl-benzylidene-hydrazinocarbonyl)-benzo[b]thiophen-2-yl]-benzamide] here?
**A.** Its IC50 is 3.72 µM.

Same assay, conditions: phosphate uptake, oocytes expressing rat NaPi-2b; 300 μM, determined from inhibition curve

**Q.** For `CCSCCNCc1ccc(C(=O)Nc2ccc(Br)cc2C(=O)N/N=C/c2cccc(C)c2)cc1` [Compound 766, N-[4-Bromo-2-(3-methyl-benzylidene-hydrazinocarbonyl)-phenyl]-4-[(2-ethylsulfanyl-ethylamino)-methyl]-benzamide], which inhibition at 300 µM is on record?
**A.** Its inhibition at 300 µM is 81.9%.

**Q.** For `CCSCCNCc1ccc(C(=O)Nc2ccc(Br)cc2C(=O)N/N=C/c2ccc(F)cc2)cc1` [Compound 767, N-[4-Bromo-2-(4-fluoro-benzylidene-hydrazinocarbonyl)-phenyl]-4-[(2-ethylsulfanyl-ethylamino)-methyl]-benzamide], which inhibition at 300 µM is on record?
**A.** Its inhibition at 300 µM is 81.8%.

**Q.** For `CCSCCNCc1ccc(C(=O)Nc2ccc(Br)cc2C(=O)N/N=C/c2cccc(OC)c2)cc1` [Compound 771, N-[4-Bromo-2-(3-methoxy-benzylidene-hydrazinocarbonyl)-phenyl]-4-[(2-ethylsulfanyl-ethylamino)-methyl]-benzamide], which inhibition at 300 µM is on record?
**A.** The inhibition at 300 µM was 85.1%.

**Q.** With `Cc1ccc(/C=N/NC(=O)c2cc(Br)ccc2NC(=O)c2ccc(CN3CCN(c4ccccn4)CC3)cc2)cc1C` [Compound 772, N-[4-Bromo-2-(3,4-dimethyl-benzylidene-hydrazinocarbonyl)-phenyl]-4-(4-pyridin-2-yl-piperazin-1-ylmethyl)-benzamide] as the compound, how does the inhibition at 300 µM read?
**A.** Its inhibition at 300 µM is 67.7%.

**Q.** Which inhibition at 300 µM does the source give for `Cc1ccc(/C=N/NC(=O)c2cc(Br)ccc2NC(=O)c2ccc(CN3CCN(c4ccccn4)CC3)cc2)cc1` [Compound 773, N-[4-Bromo-2-(4-methyl-benzylidene-hydrazinocarbonyl)-phenyl]-4-(4-pyridin-2-yl-piperazin-1-ylmethyl)-benzamide] here?
**A.** Its inhibition at 300 µM is 53.9%.

**Q.** For `O=C(Nc1ccc(Br)cc1C(=O)N/N=C/c1ccc(F)cc1)c1ccc(CN2CCN(c3ccccn3)CC2)cc1` [Compound 774, N-[4-Bromo-2-(4-fluoro-benzylidene-hydrazinocarbonyl)-phenyl]-4-(4-pyridin-2-yl-piperazin-1-ylmethyl)-benzamide], which inhibition at 300 µM is on record?
**A.** Its inhibition at 300 µM is 58.9%.

**Q.** `O=C(Nc1ccc(Br)cc1C(=O)N/N=C/c1cccc(F)c1)c1ccc(CN2CCN(c3ccccn3)CC2)cc1` [Compound 775, N-[4-Bromo-2-(3-fluoro-benzylidene-hydrazinocarbonyl)-phenyl]-4-(4-pyridin-2-yl-piperazin-1-ylmethyl)-benzamide] was tested. Which inhibition at 300 µM did it give?
**A.** Its inhibition at 300 µM is 44.6%.

**Q.** With `O=C(Nc1ccc(Br)cc1C(=O)N/N=C/c1ccc(Cl)c(C(F)(F)F)c1)c1ccc(CN2CCN(c3ccccn3)CC2)cc1` [Compound 776, N-[4-Bromo-2-(4-chloro-3-trifluoromethyl-benzylidene-hydrazinocarbonyl)-phenyl]-4-(4-pyridin-2-yl-piperazin-1-ylmethyl)-benzamide] as the compound, how does the inhibition at 300 µM read?
**A.** Its inhibition at 300 µM is 49.2%.

**Q.** `COc1ccc(/C=N/NC(=O)c2cc(Br)ccc2NC(=O)c2ccc(CN3CCN(c4ccccn4)CC3)cc2)cc1` [Compound 777, N-[4-Bromo-2-(4-methoxy-benzylidene-hydrazinocarbonyl)-phenyl]-4-(4-pyridin-2-yl-piperazin-1-ylmethyl)-benzamide] was tested. Which inhibition at 300 µM did it give?
**A.** Its inhibition at 300 µM is 34.2%.

**Q.** For `COc1cccc(/C=N/NC(=O)c2cc(Br)ccc2NC(=O)c2ccc(CN3CCN(c4ccccn4)CC3)cc2)c1` [Compound 778, N-[4-Bromo-2-(3-methoxy-benzylidene-hydrazinocarbonyl)-phenyl]-4-(4-pyridin-2-yl-piperazin-1-ylmethyl)-benzamide], which inhibition at 300 µM is on record?
**A.** The inhibition at 300 µM was 39.1%.

**Q.** Which inhibition at 300 µM does the source give for `CC(O)CN(Cc1cccc(C(=O)Nc2sccc2C(=O)N/N=C/c2ccc(Cl)c(C(F)(F)F)c2)c1)CC(C)O` (centres unmarked) [Compound 779, 3-{[Bis-(2-hydroxy-propyl)-amino]-methyl}-N-[3-(4-chloro-3-trifluoromethyl-benzylidene-hydrazinocarbonyl)-thiophen-2-yl]-benzamide] here?
**A.** The inhibition at 300 µM was 51.6%.

**Q.** For `COc1ccc(/C=N/NC(=O)c2ccsc2NC(=O)c2cccc(CN(CC(C)O)CC(C)O)c2)cc1` (centres unmarked) [Compound 780, 3-{[Bis-(2-hydroxy-propyl)-amino]-methyl}-N-[3-(4-methoxy-benzylidene-hydrazinocarbonyl)-thiophen-2-yl]-benzamide], which inhibition at 300 µM is on record?
**A.** Its inhibition at 300 µM is 47.7%.

**Q.** For `Cc1ccc(/C=N/NC(=O)c2c(C)csc2NC(=O)c2cccc(CSCCS(=O)(=O)O)c2)cc1C` [Compound 781, 2-{3-[3-(3,4-Dimethyl-benzylidene-hydrazinocarbonyl)-4-methyl-thiophen-2-ylcarbamoyl]-benzylsulfanyl}-ethanesulfonic acid], which inhibition at 300 µM is on record?
**A.** Its inhibition at 300 µM is 51.2%.

**Q.** Which inhibition at 300 µM does the source give for `Cc1ccc(/C=N/NC(=O)c2c(C)csc2NC(=O)c2cccc(CSCCS(=O)(=O)O)c2)cc1` [Compound 782, 2-{3-[4-Methyl-3-(4-methyl-benzylidene-hydrazinocarbonyl)-thiophen-2-ylcarbamoyl]-benzylsulfanyl}-ethanesulfonic acid] here?
**A.** Its inhibition at 300 µM is 86.8%.

**Q.** `Cc1csc(NC(=O)c2cccc(CSCCS(=O)(=O)O)c2)c1C(=O)N/N=C/c1ccc(F)cc1` [Compound 783, 2-{3-[3-(4-Fluoro-benzylidene-hydrazinocarbonyl)-4-methyl-thiophen-2-ylcarbamoyl]-benzylsulfanyl}-ethanesulfonic acid] was tested. Which inhibition at 300 µM did it give?
**A.** Its inhibition at 300 µM is 88.8%.

**Q.** For `Cc1csc(NC(=O)c2cccc(CSCCS(=O)(=O)O)c2)c1C(=O)N/N=C/c1ccc(Cl)c(C(F)(F)F)c1` [Compound 784, 2-{3-[3-(4-Chloro-3-trifluoromethyl-benzylidene-hydrazinocarbonyl)-4-methyl-thiophen-2-ylcarbamoyl]-benzylsulfanyl}-ethanesulfonic acid], which inhibition at 300 µM is on record?
**A.** Its inhibition at 300 µM is 88.5%.

**Q.** `COc1ccc(/C=N/NC(=O)c2c(C)csc2NC(=O)c2cccc(CSCCS(=O)(=O)O)c2)cc1` [Compound 785, 2-{3-[3-(4-Methoxy-benzylidene-hydrazinocarbonyl)-4-methyl-thiophen-2-ylcarbamoyl]-benzylsulfanyl}-ethanesulfonic acid] was tested. Which inhibition at 300 µM did it give?
**A.** Its inhibition at 300 µM is 39.5%.
